Assay results taken from the NIST ThermoML archive (doi:10.1007/s10765-013-1546-4).

Conditions: Liquid; for viscosity: Vibrating wire viscometry; for vapor or sublimation pressure: Closed cell (Static) method

CCF [fluoroethane]
viscosity [mPa·s]
Conditions | 5000 kPa | 10000 kPa | 15000 kPa | 20000 kPa | 25000 kPa | 30000 kPa
243.17 K | 0.232 | 0.2433 | 0.2538 | 0.2643 | 0.2748 | 0.285
253.16 K | 0.2037 | 0.2128 | 0.2214 | 0.2315 | 0.2396 | 0.2489
263.17 K | 0.1834 | 0.1926 | 0.2012 | 0.2097 | 0.2177 | 0.2262
273.15 K | 0.1642 | 0.1729 | 0.1812 | 0.1894 | 0.1971 | 0.205
283.15 K | 0.147 | 0.1553 | 0.1637 | 0.1713 | 0.1794 | 0.1868
293.15 K | 0.1322 | 0.1406 | 0.1489 | 0.1566 | 0.1642 | 0.1717
303.15 K | 0.1196 | 0.1279 | 0.136 | 0.1437 | 0.1512 | 0.1584
313.14 K | 0.1078 | 0.1164 | 0.1242 | 0.132 | 0.1393 | 0.1468
323.16 K | 0.0968 | 0.1054 | 0.1134 | 0.1209 | 0.1282 | 0.1356
333.16 K | 0.0866 | 0.0958 | 0.1039 | 0.1113 | 0.1181 | 0.1247
343.16 K | 0.0766 | 0.0866 | 0.0953 | 0.1027 | 0.1094 | 0.1159
353.16 K | 0.0666 | 0.0782 | 0.0871 | 0.0946 | 0.1014 | 0.108
363.16 K | 0.0562 | 0.0699 | 0.0796 | 0.0873 | 0.0943 | 0.1005

Conditions | vapor or sublimation pressure [kPa] | viscosity [mPa·s]
243.17 K | 140 | 0.2238
253.16 K | 210 | 0.1961
263.17 K | 310 | 0.175
273.15 K | 440 | 0.1565
283.15 K | 600 | 0.1395
293.15 K | 810 | 0.1247
303.15 K | 1060 | 0.1122
313.14 K | 1360 | 0.1003
323.16 K | 1730 | 0.0902
333.16 K | 2170 | 0.0803
343.16 K | 2680 | 0.0708
353.16 K | 3280 | 0.0614
363.16 K | 3990 | 0.0514
